US20230106943A1, “ENGINEERED ANTIMICROBIAL PEPTIDES AND USAGE THEREOF” (Peptilogics, Inc., priority 2021, published 2023)
Read-outs that look alike come from different tables or passages of the source. No end group written: not given here.

Key:
[1] = Example 6 solubility near saturation of SEQ ID NO: 1 in water at pH 5.0, 7.4, 8.1 (HPLC); type: physicochemical; details: for Purity of near saturation solution: water
Experimental: SEQ ID NO: 1 was dissolved to near saturation of different pH values.
396.69 mg of SEQ ID NO:1 was weighed out and dissolved in approximately 3 mL of HPLC-grade water resulting in a clear and colorless solution. The pH was 4.80 and the concentration approximately 132 mg/mL. The pH was adjusted with 0.08 M NaOH to pH=4.99. 1.1 mL was pulled, transferred to a serum vial, frozen and lyophilized. The remaining solution was adjusted to pH=7.40 with 0.08 M and 1 M NaOH. 1.45 mL was pulled, transferred to a serum vial, frozen and lyophilized. The remaining solution was adjusted to pH=8.00 with 0.08 M NaOH. This remaining solution (˜1.9 mL) was transferred to a serum vial, frozen and lyophilized. After lyophilization 200 μL HPLC-grade water was added to the solids in the serum vials and a colorless slurry was obtained. An additional 200 μL HPLC-grade water was added to obtain clear and colorless solutions. At pH=5.0 the solids went into solution without foaming; solids at pH=7.4 and pH=8 took longer to dissolve. These solutions (0.4 mL) were transferred to conical Eppendorf tubes. The vials were washed with 0.2 mL of HPLC grade water and the washes were combined with the respective solutions at the three different pH conditions. The samples were frozen and lyophilized. To the lyo cakes 50 μL increments of HPLC grade water was added. Transition from suspension or slurry to viscous solution was hard to capture. After adding 150 μL to 350 μL of HPLC grade water and intermittent mixing and storage at ambient temperature viscous and clear solutions were obtained which turned to gels when stored refrigerated at 2-8° C. All viscous solutions were centrifuged for 10 min at 12 krpm. No visible pellets were detected after centrifugation. Supernatants of the samples were analyzed for peptide concentration and purity by HPLC analysis.

[2] = Example 4 stability of concentrated saline pH 5.0 solutions at −20° C. or 40° C./75% RH: Visual Appearance (method 25481); type: physicochemical
Experimental: (§1) The peptide formulation of SEQ ID NO: 1 dissolved in a saline solution with a pH of 5.0±0.1 was tested for stability under either −20° C. or 40° C. with 75% relative humidity (RH). […]

[3] = Example 7 stability of 1 mg/mL SEQ ID NO: 1 solutions at pH 4-7, HPLC % area over storage; type: physicochemical
Experimental: SEQ ID NO: 1 was dissolved in sterile water for injection resulting solutions at a concentration of 1 mg/mL and pH adjusting agents were added to achieve a pH value in the range of 4-7. The pH adjusting chosen were acetate and sodium hydroxide and citric acid (for pH 4). Each of the solutions were filtered through a 0.45 um filter and samples were stored in 1 mL aliquots at 40° C., room temperature (approximately 20° C.), refrigerated conditions (5° C.), and frozen at −20° C. Samples were withdrawn at regular intervals (t=0, and Days 2, 7, 14, and 28) and analyzed by HPLC to determine if chemical degradation of the peptide could be detected in any samples. Degradation rates between samples of each pH were also analyzed.

[4] = Stability of 5 mg/mL SEQ ID NO: 1 solution pH 5.0 stored at 40° C. or −20° C. (content, pH, HPLC area %); type: physicochemical
[5] = Example 4 stability of concentrated solutions: pH (method 05627); type: physicochemical
Experimental: as §1

[6] = 15.3 mg/mL solution, 40° C. and 75% RH, 1 Month
[7] = 15.3 mg/mL solution, 40° C. and 75% RH, 2 Month
[8] = 15.3 mg/mL solution, 40° C. and 75% RH, 3 Month
[9] = 15.3 mg/mL solution, 40° C. and 75% RH, 6 Month
[10] = 15.3 mg/mL solution, −20° C., 0 Month
[11] = 15.3 mg/mL solution, −20° C., 1 Month
[12] = 15.3 mg/mL solution, −20° C., 2 Month
[13] = 15.3 mg/mL solution, −20° C., 3 Month
[14] = 15.3 mg/mL solution, −20° C., 6 Month
[15] = 36.7 mg/mL solution, 40° C. and 75% RH, 1 Month
[16] = 36.7 mg/mL solution, 40° C. and 75% RH, 2 Month
[17] = 36.7 mg/mL solution, 40° C. and 75% RH, 3 Month
[18] = 36.7 mg/mL solution, 40° C. and 75% RH, 6 Month
[19] = 36.7 mg/mL solution, −20° C., 0 Month
[20] = 36.7 mg/mL solution, −20° C., 1 Month
[21] = 36.7 mg/mL solution, −20° C., 2 Month
[22] = 36.7 mg/mL solution, −20° C., 3 Month
[23] = 36.7 mg/mL solution, −20° C., 6 Month
[24] = 72.4 mg/mL solution, 40° C. and 75% RH, 1 Month
[25] = 72.4 mg/mL solution, 40° C. and 75% RH, 2 Month
[26] = 72.4 mg/mL solution, 40° C. and 75% RH, 3 Month
[27] = 72.4 mg/mL solution, 40° C. and 75% RH, 6 Month
[28] = 72.4 mg/mL solution, −20° C., 0 Month
[29] = 72.4 mg/mL solution, −20° C., 1 Month
[30] = 72.4 mg/mL solution, −20° C., 2 Month
[31] = 72.4 mg/mL solution, −20° C., 3 Month
[32] = 72.4 mg/mL solution, −20° C., 6 Month
[33] = 81.4 mg/mL solution, 40° C. and 75% RH, 1 Month
[34] = 81.4 mg/mL solution, 40° C. and 75% RH, 3 Month
[35] = 81.4 mg/mL solution, −20° C., 1 Month
[36] = 81.4 mg/mL solution, −20° C., 2 Month
[37] = 81.4 mg/mL solution, −20° C., 3 Month

## RRWVRRVRRVWRRVVRVVRRWVRR-NH2 [SEQ ID NO: 1]
[1]; pH 5, water, pH 5.0, read-out: Solubility of near saturation, Concentration
  solubility: ≥ 328 mg/mL
[1]; pH 7.4, water, pH 7.4, read-out: Solubility of near saturation, Concentration
  solubility: ≥ 228 mg/mL
[1]; pH 8.1, water, pH 8.1, read-out: Solubility of near saturation, Concentration
  solubility: ≥ 250 mg/mL
[1]; pH=5.0, read-out: solubility near saturation concentration in water
  solubility: 328 mg/mL
[1]; pH=7.4, read-out: solubility near saturation concentration in water
  solubility: 228 mg/mL
[1]; pH=8.1, read-out: solubility near saturation concentration in water
  solubility: 250 mg/mL
[1]; pH 5.0
  Purity of near saturation solution: 95.6%
[1]; pH 7.4
  Purity of near saturation solution: 97.2%
[1]; pH 8.1
  Purity of near saturation solution: 96.7%
[2]; [6]
  Visual Appearance: Clear, colorless liquid. Free of visible particulates.
[2]; [7]
  Visual Appearance: Clear, colorless liquid. Free of visible particulates.
[2]; [8]
  Visual Appearance: Clear, colorless liquid. Free of visible particulates.
[2]; [9]
  Visual Appearance: Clear, colorless liquid. Free of visible particulates,
[2]; [10]
  Visual Appearance: Clear, colorless liquid. Free of visible particulates.
[2]; [11]
  Visual Appearance: Clear, colorless liquid. Free of visible particulates.
[2]; [12]
  Visual Appearance: Clear, colorless liquid. Free of visible
[2]; [13]
  Visual Appearance: Clear, colorless liquid. Free of visible particulates.
[2]; [14]
  Visual Appearance: Clear, colorless liquid. Free of visible particulates,
[2]; [15]
  Visual Appearance: Clear, colorless liquid
[2]; [16]
  Visual Appearance: Clear, colorless liquid
[2]; [17]
  Visual Appearance: Clear, colorless liquid
[2]; [18]
  Visual Appearance: Clear, colorless liquid, free
[2]; [19]
  Visual Appearance: Clear, colorless liquid.
[2]; [20]
  Visual Appearance: Clear, colorless liquid.
[2]; [21]
  Visual Appearance: Clear, colorless liquid.
[2]; [22]
  Visual Appearance: Clear, colorless liquid.
[2]; [23]
  Visual Appearance: Clear, colorless liquid, free
[2]; [24]
  Visual Appearance: Clear, colorless liquid
[2]; [25]
  Visual Appearance: Clear, colorless liquid
[2]; [26]
  Visual Appearance: Clear, colorless liquid
[2]; [27]
  Visual Appearance: Clear, slightly yellow liquid, free
[2]; [28]
  Visual Appearance: Clear, colorless liquid
[2]; [29]
  Visual Appearance: Clear, colorless liquid
[2]; [30]
  Visual Appearance: Clear, colorless liquid
[2]; [31]
  Visual Appearance: Clear, colorless liquid
[2]; [32]
  Visual Appearance: Clear, colorless liquid, free
[2]; [33]
  Visual Appearance: Clear, yellow liquid
[2]; [34]
  Visual Appearance: stopper Solution: Clear, yellow
[2]; [35]
  Visual Appearance: Clear, colorless liquid
[2]; [36]
  Visual Appearance: a clear colorless liquid, visibly
[2]; [37]
  Visual Appearance: rubber stopper Solution: Clear, colorless liquid,
[3]; pH 4-7 samples, after 7 days of storage at 40° C.
  impurity change by HPLC % area: no significant evidence of impurity increase
[3]; pH 4 and pH 5 made with acetic acid
  overall stability as a function of pH: maximum stability
[3]; prepared at pH 4 with citrate, after 27 days of storage at 40° C.
  impurity change by HPLC % area: increase in impurities
[3]; prepared at pH 7, after 27 days of storage at 40° C.
  impurity change by HPLC % area: increase in impurities
other
  pKa: ~12.5
[4]; 7 days/−20° C.
  Solution pH: 4.95
[4]; 14 days/−20° C.
  Main peak SEQ ID NO: 1 area %: 95.4%
[4]; 54 days/−20° C.
  SEQ ID NO: 1 content: 5.09 mg/mL
  Solution pH: 4.95
[5]; [6]
  pH: Average Reading: 4.9
[5]; [7]
  pH: Average Reading: 5.0
[5]; [8]
  pH: Average Reading: 5.0
[5]; [9]
  pH: 5.0
[5]; [10]
  pH: Average Reading: 4.9
[5]; [11]
  pH: Average Reading: 5.0
[5]; [12]
  pH: Average Reading: 4.9
[5]; [13]
  pH: Average Reading: 5.0
[5]; [14]
  pH: 5.0
[5]; [15]
  pH Average Reading: Average Reading: 4.8
[5]; [16]
  pH Average Reading: Average Reading: 4.9
[5]; [17]
  pH Average Reading: Average Reading: 5.0
[5]; [18]
  pH: 4.8
[5]; [19]
  pH: Average Reading: 4.9
[5]; [20]
  pH: Average Reading: 4.8
[5]; [21]
  pH: Average Reading: 4.9
[5]; [22]
  pH: Average Reading: 5.0
[5]; [23]
  pH: 4.9
[5]; [24]
  pH Average Reading: Average Reading: 4.7
[5]; [25]
  pH Average Reading: Average Reading: 4.9
[5]; [26]
  pH Average Reading: Average Reading: 5.0
[5]; [27]
  pH: 4.8
[5]; [28]
  pH Average Reading: Average Reading: 4.9
[5]; [29]
  pH Average Reading: Average Reading: 4.7
[5]; [30]
  pH Average Reading: Average Reading: 4.8
[5]; [31]
  pH Average Reading: Average Reading: 5.0
[5]; [32]
  pH: 4.8
[5]; [33]
  pH: 4.9
[5]; 81.4 mg/mL solution, 40° C. and 75% RH, 2 Month
  pH: 4.9
[5]; [34]
  pH: 4.9
[5]; 81.4 mg/mL solution, −20° C., 0 Month
  pH: 4.6
[5]; [35]
  pH: 4.8
[5]; [36]
  pH: 4.9
[5]; [37]
  pH: 4.6
